Reference: article PMC11428593 (Antibiotics, 2024)
Converted amounts (≈) assume the structure as drawn. “Also recorded” adds a separate entry of the source.

Assays:
[1] = test system: S. aureus strain USA300LAC established biofilm; experiment: Biofilm eradication assay (crystal violet); type: cell-based, Staphylococcus aureus; conditions: at or below 4× MIC, 24 h, in words
Method: (§1) The establishment of a bacterial biofilm usually begins with pathogen attachment to biotic and abiotic surfaces, and S. aureus is notorious for its ability to form biofilms on surfaces, such as implants and catheters, which presents a unique treatment challenge.
(§2) Overnight cultures of S. aureus strain USA300LAC were diluted into fresh TSB to an OD600nm = 0.001 and incubated aerobically at 37 °C until the mid-log phase. (A) To detect effects on biofilm formation, cultures were diluted to an OD600nm = 0.0001 in the presence and absence of JC-01-074 and vancomycin at concentrations of 0.5–4× MIC, respectively. (B) To detect effects on biofilm eradication, cultures were diluted to an OD600nm = 0.0001 and incubated under static conditions for 24 h, after which planktonic cells were removed, and the preformed biofilms were washed twice with PBS. […] Biofilm mass was quantified after 20 h via crystal violet staining. One-way ANOVA, Dunnett’s multiple-comparison test (* p < 0.05, ** p < 0.01); (n = 3, ±S.D.).
The overnight USA300LAC cultures were diluted 1000-fold into the TSB media and incubated under shaking conditions at 37 °C until the mid-log phase. […] After 24 h of incubation, biofilm eradication was assessed via CV staining at 595 nm in a Tecan 200 Infinite Pro microplate reader (Tecan, Morgan Hill, CA, USA).

USA300LAC cells = experiment: Propidium iodide uptake assay (membrane damage); type: cell-based, Staphylococcus aureus
Text: The alkyl pyridinol derivates synthesized in this study are characterized by high lipophilicity. To determine whether and to what extent these compounds incorporate into and disrupt the phospholipid bilayer of the S. aureus cell envelope, we performed a propidium iodide (PI) uptake assay. Given the membrane-impermeable nature of PI, the fluorophore can be used to assess membrane disruption in cells by measuring its non-specific interaction with DNA, which leads to enhanced fluorescence. […] The extent of membrane damage caused by JC-01-074 occurred in a dose-dependent manner.
Figure 4 JC-01-074 causes significant membrane damage in S. aureus. Membrane damage was evaluated via propidium iodide (PI) staining. […] Treatment of USA300LAC with 2.5% DMSO, 4 µg/mL vancomycin, and 0.25% SDS were included as negative and positive controls, respectively. Cells were collected, washed, resuspended in PBS, and stained with 1 µM PI. PI fluorescence was measured (exc./em. wavelengths: 535/615 nm) and normalized to OD600nm. One-way ANOVA, Dunnett’s multiple-comparison test (* p < 0.05, **** p < 0.0001); (n = 3, ±S.D.).
The plasma membrane integrity was determined using the Propidium Iodide Uptake assay, as previously described. Briefly, the overnight cultures of USA300LAC were diluted into fresh TSB media, grown to an early log phase at 37 °C and 300 rpm, and treated with either DMSO, an alkyl pyridinol derivate, vancomycin, or SDS at the indicated concentrations for 1 h. Following two washing steps, the cells were then resuspended in phosphate-buffered saline (PBS), pH = 7.4, and subsequently stained with 1 µM propidium iodide (PI). The PI fluorescence intensity was determined at an excitation wavelength of 535 nm and an emission wavelength of 615 nm.

[2] = test system: S. aureus strain USA300LAC biofilm; experiment: Inhibition of biofilm formation (crystal violet); type: cell-based, Staphylococcus aureus
Method: as §1, §2
The overnight USA300LAC cultures were diluted 1000-fold into the fresh TSB media and incubated under shaking conditions at 37 °C until the mid-log phase. The cultures were subsequently diluted to approximately 4 × 10^6 CFU/mL and dispended into 96-well polystyrene plates (Alkali Scientific, Fort Lauderdale, FL, USA) containing DMSO (control), vancomycin (0.5–4× MIC), or the indicated alkyl pyridinol compounds (0.5–4× MIC) and sealed with a breath-easy membrane (Fisherbrand, Waltham, MA, USA). The peripheral wells were filled with PBS to limit evaporation. The plates were incubated without agitation at 37 °C for 24 h, following which the planktonic cells were removed. The biofilms were washed twice with PBS, stained with 0.1% crystal violet (CV) for 15 min, and washed again twice with PBS to remove the unbound CV dye. CV bound to biofilm cells was extracted with 30% (v/v) glacial acetic acid, and the O.D.595nm was determined.

S. aureus ATCC 25923 = experiment: MIC by broth microdilution (CLSI); type: cell-based; conditions: Staphylococcus aureus, ATCC25923, MHB, 37 °C, 16 h
Text: (§3) To assess the impact of the nitrogen position in our newly synthesized anaephene derivates, we analyzed their antimicrobial activities against various S. aureus strains, including ATCC 25,923 and the two methicillin-resistant S. aureus (MRSA) strains ATCC 33,591 and ATCC BAA-44. […] We determined the minimum inhibitory concentrations (MIC) of each of our compounds against the different bacterial strains by broth microdilution following the CLSI guidelines. As expected, all five compounds tested were completely ineffective against the Gram-negative P. aeruginosa strain ATCC 27,853 (Table 1).
(§4) The MIC values of the alkyl pyridinol derivatives against the S. aureus strain ATCC 25923, MRSA strains ATCC 33591, ATCC BAA-44, and USA300LAC, as well as the P. aeruginosa strain ATCC 27853, were determined by following the CLSI guidelines for the broth microdilution antibiotic sensitivity testing protocol. In brief, the overnight cultures were diluted into Mueller Hinton Broth (MHB) to a final inoculum concentration of 5 × 10^5 CFU/mL (O.D600nm = 0.00001) and dispensed into a 96-well polystyrene plate (Alkali Scientific, Fort Lauderdale, FL, USA). Alkyl pyridine compounds were diluted into inoculated MHB to the indicated concentrations from stock solutions that would allow for DMSO concentrations below 5%, resulting in a total volume of 200 μL per well. The plates were subsequently incubated at 37 °C for 16 h at 300 rpm. The MIC values, which are defined as the lowest compound concentration that inhibited growth, were determined from three biological replicates.

MRSA ATCC BAA-44 = experiment: MIC by broth microdilution (CLSI); type: cell-based; conditions: Staphylococcus aureus, MHB, 37 °C, 16 h
Text: as §3, §4

SMILES	eradication of established biofilms [1]	PI fluorescence compared to DMSO-treated control (USA300LAC cells; 1 h treatment at MIC ([…] µg/mL))	reduction of biofilm formation ([2]; 0.5–4× MIC, dose-dependent)	inhibition of biofilm formation ([2]; up to 4× MIC, in words)	MIC (S. aureus ATCC 25923)	MIC (MRSA ATCC BAA-44)	changes in PI intensity (USA300LAC cells; up to 2× MIC, 1 h exposure)
CCCCCCCCCC#Cc1cccc(O)n1 [JC-01-074]	has no effect once biofilms have been established; also recorded: no significant effects on the already established biofilms	about five-fold higher PI fluorescence	60–70%	very potent in inhibiting their formation	16 µg/mL (≈ 65.2 µM)	16 µg/mL (≈ 65.2 µM)	–
CCCCCCCCCC#Cc1cncc(O)c1 [JC-01-072]	–	–	–	–	4 µg/mL (≈ 16.3 µM)	4 µg/mL (≈ 16.3 µM)	minimal changes
